Series [1] deals with whole cells of transformed Saccharomyces cerevisiae. Description: O.D.600 and substrate radioactivity recovered in whole yeast cells. Particulars: hD6D-1 whole cells. On the procedure: Transformed Saccharomyces cerevisiae pTh5002.1 with V5/6xHis tags were incubated in a 125 ml Erlenmeyer flask containing 9 ml of modified SC-U medium with 1% tergitol (O.D.6000.4, approximately 3.2×10^6 cells) and 200 μl of 7, 14 or 28 mM n-propyl gallate in ethanol. After 1 h incubation in an orbital incubator at 270 rpm and 30° C., 1 μCi of potassium salts of [1-^14C]-linoleic or [1-^14C]-alpha-linolenic acids (dissolved in modified SC-U medium and 1% tergitol) were added to the cell suspension to a final concentration of 2 μM. After 5 h incubation with the inhibitor, cells reached the log phase and the transgene expression was induced with the addition of 1 ml of galactose to a final concentration of 2%.

Series [2] has as its target T1, hD6D-1 (with V5/6xHis tags) (Homo sapiens, UniProt O95864).
T1 sequence (O95864 1-444): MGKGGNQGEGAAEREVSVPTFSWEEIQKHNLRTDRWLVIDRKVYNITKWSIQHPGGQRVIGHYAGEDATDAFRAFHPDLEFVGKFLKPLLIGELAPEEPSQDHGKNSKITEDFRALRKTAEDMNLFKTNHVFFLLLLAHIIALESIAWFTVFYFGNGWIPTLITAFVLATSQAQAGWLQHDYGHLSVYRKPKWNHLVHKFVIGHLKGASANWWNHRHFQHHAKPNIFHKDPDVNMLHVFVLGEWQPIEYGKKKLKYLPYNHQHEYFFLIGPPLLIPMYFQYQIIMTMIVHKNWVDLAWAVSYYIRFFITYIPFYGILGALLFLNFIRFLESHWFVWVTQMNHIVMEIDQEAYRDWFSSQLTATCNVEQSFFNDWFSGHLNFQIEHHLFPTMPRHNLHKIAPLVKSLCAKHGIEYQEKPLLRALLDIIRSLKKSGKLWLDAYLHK
Description: Inhibition of hD6D-1 in spheroplasts of transformed Saccharomyces cerevisiae. Particulars: [1-14C]-alpha-linolenic acid.
Description: Saccharomyces cerevisiae transformed with pYr5003.1 without V5/6×His tags or pTh5002.1 with V5/6×His tags were grown in modified SC-U medium with 2% galactose to induce the expression of the gene that encodes the fatty acid delta-6-desaturase. After 16 h incubation, cells were centrifuged at 2060×g for 5 min at 4° C., washed once with distilled water and centrifuged again. The volume and weight of the cell pellet were measured Cells were suspended (1:2 w/v) in 0.1 M Tris.SO4 (pH 9.4), 10 mM DTT and incubated at 30° C. After 10 min incubation, the cell pellet was obtained by centrifugation, washed once (1:20 w/v) with 1.2 M sorbitol and suspended (1:1 w/v) in 1.2 M sorbitol, 20 mM phosphate buffer (pH 7.4) as described elsewhere (Daum et al., 1982, J. Biol. Chem., 257: 13028-13033). The 15,800× g (1 min) supernatant of Lyticase was added to the cell suspension at a concentration of 2000 U/ml and the suspension incubated at 30° C. with 50 rpm shaking. Conversion to spheroplasts was checked after 40 min incubation by diluting the suspension with distilled water followed by observation under the microscope (Schatz G. and Kovac L., 1974, Methods in Enzymology, 31A: 627-632).
Spheroplasts were harvested by centrifugation at 2060×g for 5 min at 4° C. and washed once with 1.2 M sorbitol. Spheroplasts were suspended in modified SC-U medium with 1% tergitol, 1.2 M sorbitol and 2% galactose to maintain the induction conditions and to give an OD600 reading of approximately 2.5-3.0. A 10 ml aliquot of the spheroplast suspension was transferred to a 125 ml Erlenmeyer flask and incubated with 200 μL of n-propyl gallate in ethanol (final concentration in the culture ranged between 0.7 and 14.1 mM) at 30° C. in an orbital incubator set at 270 rpm After 30 min incubation 1 μCi of [1-^14C]-alpha-linolenic or [1-^14C]-linoleic acids were added to the cultures to a final concentration of 2 μM and further incubated for 120 min. At this time point, turbidity readings at OD600 were taken, spheroplasts were harvested by centrifugation and washed with Tris buffer (100 mM, pH 8.0) containing 0.1%/o BSA. Total lipids were extracted as described below.
The radioactivity from aliquots of the supernatant, spheroplasts and whole cells was determined by liquid scintillation counting using a LS6500-Scintillation System (Beckman) prior to the lipid extraction. Total lipids were extracted from cells or spheroplasts with chloroform/methanol (2:1 v/v) according to the method of Folch et al., 1957, J. Biol. Chem., 226: 497-509. The total lipid extracts were methylated using boron trifluoride in methanol at 90° C. for 30 min.
The desaturase activity was determined by measuring the conversion of radiolabelled linoleic acid to gammna-linolenic acid (18:2n-6 to 18:3n-6) and alpha-linolenic acid to stearidonic acid (18:3n-3 to 18:4n-3). The percent inhibition was calculated as described elsewhere (Kawashima et al., 1996, Biosci. Biotech. Biochem., 60:1672-1676):
Inhibition % =(activity without the inhibitor−activity with the inhibitor)/activity without the inhibitor

The structures appear in SMILES notation.

With `CCCOC(=O)c1cc(O)c(O)c(O)c1` [n-propyl gallate, Propyl ester of 3,4,5-trihydroxybenzoic acid], the O.D.600 in series [1] (inhibitor 7 mM) stood at 9.3; in series [1] (inhibitor 14 mM), 7.2; in series [1] (inhibitor 28 mM), 0. Further, the “% of inhibition” value in series [2] (inhibitor 0.7 mM) is 11.6%; in series [2] (inhibitor 1.4 mM), 18.8%; in series [2] (inhibitor 2.8 mM) it was 56.4%; in series [2] (inhibitor 14.1 mM), 100%.

The values are drawn from patent US20040053234A1, “Polynucletides that control delta-6 desaturase genes and methods for identifying compounds for modulating delta-6 desaturase” (priority 2000, published 2004).
